For the experiment, the system named is inducible engineered cell. As to the kind of experiment: Mesenchymal to Epithelial transition (MET) assay (D11), plasticity ratio from E-Cadherin and Vimentin markers. The format is cell-based. Particulars: 10 mM RA; FIG. 12A; E-Cadherin (AF 647), Vimentin (AF 488); PR with no RA 1.3. An excerpt:
FIGS. 12A and 12B depict an assay, Mesenchymal to Epithelial transition (MET) (D11), at various concentrations of Retinoic acid (RA) assessing markers E-Cadherin and Vimentin; and RA effect on expression of E-Cadherin and Vimentin in SW480 clone 1C3, respectively, according to embodiments as disclosed herein;
FIGS. 12A and 12B are representations depicting assay for Mesenchymal to Epithelial transition (MET) (D11), at various concentrations of Retinoic acid (RA) measuring markers E-Cadherin and Vimentin; and RA effect on expression of E-Cadherin and Vimentin in SW480 clone 1C3, respectively. […] FIGS. 15A, 15B and 15C are representations depicting assay for Exosome vesicles secretion and uptake (D14), showing standard curve of exosome quantification; exosome secretion in colon cancer cells; and exosome uptake in cell lines.
Mesenchymal to Epithelial transition (MET) is the ability of the tumor cells to change from the moving cellular form, back to the growing cellular form. This is measured by detecting the change in the epithelial and mesenchymal cell markers, once cells are treated with agents promoting MET. […] Flow cytometry is used, along with imaging techniques like fluorescence markers using multiple proteins as markers, including but not limited to E cadherin, Vimentin, N Cadherin, Epcam, CD 133, CD 44, to measure MET. […]

Structures are written as SMILES.

For the compound `CC1=C(/C=C/C(C)=C/C=C/C(C)=C/C(=O)O)C(C)(C)CCC1` [RA, Retinoic acid], the “PR (plasticity ratio, mesenchymal marker Vimentin to epithelial marker E-Cadherin)” value is recorded as 0.56.
